Laboratory results taken from patent US5011847A, “2,5-diaryl tetrahydrofurans and analogs thereof as PAF antagonists” (Merck & Co., Inc., priority 1989, dated 1991).

Target: T1, PAF specific receptor binding site, human platelet membranes (Homo sapiens, UniProt P25105)
T1 construct: from tissue; host or cells: human platelets (plasma membrane suspension)
Assay: Inhibition of [3H] N-methylcarbamoyl-PAF binding to human platelet membranes
Conditions: trans configuration; for inhibition at 0.003 µM: 3 nM; for inhibition at 0.03 µM: 30 nM
Experimental: The compounds of formula (I) inhibit PAF-induced functions in both the cellular and tissue levels by changing the PAF binding to its specific receptor site. The ability of a compound of formula (I) to inhibit the PAF binding to its specific receptor binding site on rabbit or human platelet or PMN plasma membranes was measured by a recently developed assay.
The inhibition of ^3 [H]-PAF or ^3 [H]-N-methylcarbamoyl-PAF binding to the human or rabbit platelet or PMN plasma membrane by a PAF antagonist of formula (I) was determined by a method employing isotopic labeling and filtration techniques. Generally, a series of Tris-buffered solutions of the selected antagonist at predetermined concentrations were prepared. Each of these solutions contains 1 pmole of ^3 H-PAF, a known amount of the test antagonist, and a sufficient amount of the pH 7.5 Tris-buffer solution (10 mM Tris, 0.25% bovine serum albumin, and 150 mM NaCl per ml water) to make the final volume of 1 ml. After adding into a set of test tubes each with 100 μg of the platelet plasma membrane suspension (S. B. Hwang, et al., Biochemistry. Vol. 22, pp. 4756-4763, 1983) and one of the Tris-buffer solutions described above, the resulting mixture in each test tube was incubated at 0° C. for about one hour or until the reaction was complete. Two control samples, one of which (C1) contains all the ingredients described above except the antagonist and the other (C2) contains C 1 plus a 1000-fold excess of unlabeled PAF, were also prepared and incubated simultaneously with the test samples. After the incubation was completed, the contents of each test tube were filtered under vacuo through a Whatman GF/C fiberglass filter and the residue washed rapidly several times with a total of 20 ml cold (0°-5° C.) Tris buffer solution. Each washed residue was then suspended in 10 ml scintillation solution (Aquasol 2, New England Nuclear, Conn.) and the radioactivity was counted in a Packard Tri-Carb 460CD Liquid Scintillation System. Defining the counts from a test sample as "Total binding with antagonist"; the counts from the control sample C1, as "Total binding C1 "; and the counts from the control sample C2 as "non-specific binding C2 ", the percent inhibition of each test antagonist can be determined by the following equations: [formula]
Specific binding=(Total binding C1)-(non-specific binding C2)
*Inibition of the binding of [^3 H] Nmethylcarbamoyl-PAF to human

T1 sequence (P25105 whole entry): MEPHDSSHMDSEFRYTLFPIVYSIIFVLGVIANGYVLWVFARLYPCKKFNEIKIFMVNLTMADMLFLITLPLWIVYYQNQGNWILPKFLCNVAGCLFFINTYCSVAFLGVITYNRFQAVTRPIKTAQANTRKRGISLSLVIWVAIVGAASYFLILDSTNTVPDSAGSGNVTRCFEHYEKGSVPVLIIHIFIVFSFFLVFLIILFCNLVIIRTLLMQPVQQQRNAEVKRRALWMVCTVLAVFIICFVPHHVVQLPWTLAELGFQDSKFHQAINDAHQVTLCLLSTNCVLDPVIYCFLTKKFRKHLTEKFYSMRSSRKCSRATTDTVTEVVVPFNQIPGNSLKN

Row | Compound | inhibition at 0.003 µM [%] | inhibition at 0.03 µM [%]
1 | CCCOc1c(OCC(C)=O)cc([C@@H]2CC[C@@H](c3cnc(OC)c(OC)c3)O2)cc1S(=O)(=O)CCCO (relative stereo) | 30 | 66
2 | CCCOc1c(OCCCO)cc([C@@H]2CC[C@@H](c3cnc(OC)c(OC)c3)O2)cc1S(=O)(=O)CC(C)=O (relative stereo) [trans-2-[3-(2-oxopropyl)sulfonyl-4-n-propoxy-5-(3-hydroxypropoxy)phenyl]-5[5-(2,3-dimethoxy)pyridyl]tetrahydrofuran] | 43 | 87
3 | CCCOc1c(OCC(C)=O)cc([C@H]2CC[C@H](c3cccnc3)O2)cc1S(=O)(=O)CCC (relative stereo) [trans-2-[3-n-propylsulfonyl-4-n-propoxy-5-(2-oxopropoxy)phenyl]-5-(3-pyridyl) tetrahydrofuran] | 12 | 66
4 | CCCOc1c(OCC(C)=O)cc([C@@H]2CC[C@@H](c3cnc(OC)c(OC)c3)O2)cc1S(=O)(=O)CCC (relative stereo) [trans-2-[3-n-propylsulfonyl-4-n-propoxy-5-(2-oxopropoxy)phenyl]-5-[5-(2,3-dimethoxy)pyridyl]tetrahydrofuran] | 63 | 93
5 | CCCOc1c(OCC(C)=O)cc([C@@H]2CC[C@@H](c3cnc(OC)c(OC)n3)O2)cc1S(=O)(=O)CCC (relative stereo) [trans-2-[3-n-propylsulfonyl-4-n-propoxy-5-(2-oxopropoxy)phenyl]-5-[6-(2,3-dimethoxy)pyrazyl]tetrahydrofuran] | 58 | 100
6 | CCCOc1c(OCCO)cc([C@@H]2CC[C@@H](c3cnc(OC)c(OC)c3)O2)cc1S(=O)(=O)CC(C)O (stereo partly drawn) [trans-2-[3-(2-Hydroxypropyl)sulfonyl-4-n-propoxy 5-(2-hydroxyethoxy)phenyl]-5-[5-(2,3-dimethoxy)pyridyl]tetrahydrofuran] | 13 | 58
7 | CCCOc1c(OCC(C)=O)cc([C@@H]2CC[C@@H](c3cnc(OC)c(OC)c3)O2)cc1S(=O)(=O)CC(C)O (stereo partly drawn) [trans-2-[3-(2-Hydroxypropyl)sulfonyl-4-n-propoxy-5-(2-oxopropoxy)phenyl]-5-[5-(2,3-dimethoxy)pyridyl]tetrahydrofuran] | 31 | 81
8 | CCCOc1c(OCC(C)=O)cc([C@@H]2CC[C@@H](c3cnc(OC)c(OC)n3)O2)cc1S(=O)(=O)CC(C)O (stereo partly drawn) [trans-2-[3-(2-Hydroxypropyl)sulfonyl-4-n-propoxy-5-(2-oxopropoxy)phenyl]-5-[6-(2.3 dimethoxy)pyrazyl]tetrahydrofuran] | 42 | 81
9 | CCCOc1c(OCCCO)cc([C@@H]2CC[C@@H](c3cnc(OC)c(OC)c3)O2)cc1S(=O)(=O)CC(C)O (stereo partly drawn) [trans-2-[3-(2-Hydroxypropyl)sulfonyl-4-n-propoxy-5-(3-hydroxypropoxy)phenyl]-5[5-(2,3-dimethoxy)pyridyl]tetrahydrofuran] | 16 | 75
10 | CCCOc1c(OCC(C)O)cc([C@@H]2CC[C@@H](c3cnc(OC)c(OC)c3)O2)cc1S(=O)(=O)CCC (stereo partly drawn) [trans-2-[3-n-propylsulfonyl-4-n-propoxy-5-(2-hydroxypropoxy)phenyl]-5-[5-(2,3-dimethoxy)pyridyl]tetrahydrofuran] | 54 | 100
11 | CCCOc1c(OCC(C)O)cc([C@@H]2CC[C@@H](c3cnc(OC)c(OC)n3)O2)cc1S(=O)(=O)CCC (stereo partly drawn) [trans-2-[3-n-propylsulfonyl-4-n-propoxy-5-(2-hydroxypropoxy)phenyl]-5-[6-(2,3-dimethoxy)pyrazyl]tetrahydrofuran] | 60 | 100
